According to US8809354B2, “3-amino-2-(4-nitrophenyl)-4-(3H)-quinazolinone or derivatives thereof for treating or preventing antiviral infections” (priority 2011, dated 2014):

Key:
[1] = tested on: HCV sub-genomic replicon in FCA 4 cells; assay type: cell-based, hepatitis C virus
From the text: FCA-4 sub genomic replicon was bicistronic construct composed of the HCV IRES (nucleotides 1 to 377 of the 5′NCR); the neomycin phosphotransferase (neo) gene; the encephalomyocarditis IRES, which mediates the translation of HCV nonstructural proteins NS3 through NS5; and the 3′NCR as shown in FIG. 2. […] FCA-4 sub-genomic replicon consists of single adaptive mutation and a deletion of a serine residue at position 1176 (Guo et al, 2001).
The bicistronic RNA molecule contains the HCV IRES and a few core-coding sequences, which are followed by neomycin phosphotransferase gene (Neor). These sequences are followed by the encephalomyocarditis virus IRES placed in front of HCV sequences encoding nonstructural protein NS3 to NS5B, terminating at the HCV 3NCR.
To determine the antiviral effect against HCV, FCA 4 cells were seeded in six well plates. After 24 h, media containing 20 μM of test compound was added to the plates. Cells were incubated at 37° C. in CO2 incubator for additional 48 h. At the end of the incubation, cells were harvested, RNA was extracted and cDNA were generated by oligo dT priming. cDNA was amplified by PCR using primers specific to the 5′UTR and NS5B gene of HCV. Amplification of GAPDH mRNA served as an internal control. […]

[2] = tested on: HCV 3a genotype in MDBK cells; test: Synergy with interferon-α against HCV in MDBK cells (real time Quantitative RT-PCR); assay type: cell-based, hepatitis C virus; settings: with interferon-α 5 IU/well, 6 hrs pre-incubation, HCV 3a 2×10^4 copies per well, 18 hrs
Description: Surprising synergism was recorded when Compound 1 was combined with Interferon alpha. […] MDBK cells were incubated for 6 hrs with compounds and interferon alone, or combination of compound and interferon in a 96-well plat. After 6 hrs cells were infected with 2×10^4 copies of HCV 3a genotype per well and incubated for additional 18 hrs. At the end of incubation period, total RNA was extracted by Gentra kit, and the levels of HCV RNA remaining were determined, by real time Quantitative RT-PCR assay and are shown as percentage of HCV RNA survival in cells. Results are represented as the average and standard error for three independent experiments.

HCV = settings: Ribavirin alone, cited from earlier work
HCV protease = HCV protease (Hepatitis C virus genotype 1a, UniProt P26664); settings: SDS-PAGE and autoradiography assay; cited from earlier work
HCV protease, sequence (P26664 1027-1657): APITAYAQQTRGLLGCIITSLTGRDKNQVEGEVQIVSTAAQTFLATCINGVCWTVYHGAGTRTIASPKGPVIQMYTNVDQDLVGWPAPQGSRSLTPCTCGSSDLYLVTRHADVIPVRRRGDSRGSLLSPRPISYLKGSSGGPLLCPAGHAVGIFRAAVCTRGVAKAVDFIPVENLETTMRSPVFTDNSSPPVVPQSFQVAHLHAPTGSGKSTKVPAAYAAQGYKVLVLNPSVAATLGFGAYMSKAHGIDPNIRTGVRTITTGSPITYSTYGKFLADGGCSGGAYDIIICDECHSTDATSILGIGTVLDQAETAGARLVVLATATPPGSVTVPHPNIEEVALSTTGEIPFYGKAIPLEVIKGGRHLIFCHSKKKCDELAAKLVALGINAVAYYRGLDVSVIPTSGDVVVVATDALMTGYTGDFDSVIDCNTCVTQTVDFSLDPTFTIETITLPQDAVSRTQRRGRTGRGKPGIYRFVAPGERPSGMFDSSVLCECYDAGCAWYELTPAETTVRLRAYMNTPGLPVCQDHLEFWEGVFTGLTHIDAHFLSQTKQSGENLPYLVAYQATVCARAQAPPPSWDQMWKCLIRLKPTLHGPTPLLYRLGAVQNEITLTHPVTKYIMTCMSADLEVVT

## Nn1c(-c2ccc([N+](=O)[O-])cc2)nc2ccccc2c1=O [Compound 1, 3-amino-2-(4-nitrophenyl)-4-(3H)-quinazolinone]
[1]
  Cytotoxicity in relation to antiviral suppression: independent of cytotoxicity
[1]; 20 μM, 48 h, PCR with primers for 5′UTR and NS5B
  HCV RNA expression: inhibited HCV RNA expression significantly
[2]
  Antiviral activity in combination with interferon-α (HCV RNA survival): synergistic effect

## NC(=O)c1ncn([C@@H]2O[C@H](CO)[C@@H](O)[C@H]2O)n1 [Ribavirin, 1-β-D-ribofuranosyl-1-1,2,4-triazole-3-carboxamide]
HCV; patients
  Serum levels of HCV-RNA: does not lower
HCV
  Patients in whom serum amino transferase levels are reduced to normal: 40%

## CCCC(=O)c1cc2c(c(O)c1C)C(=O)C(=O)c1c(O)cccc1-2 [Sch 68631]
HCV protease
  Activity against HCV protease: micromolar activity
